Results: patent US10392390B2, “5-HT2C receptor agonists and compositions and methods of use” (Arena Pharmaceuticals, Inc., priority 2015, dated 2019)

Experiments:
5-HT2C receptor [1] = molecular target: T1, 5-HT2C receptor (Homo sapiens, UniProt P28335); experiment: IP accumulation assay in HEK293 cells expressing recombinant 5-HT2 receptors; format: cell-based; settings: 2 h at 37° C.
T1 construct: expressed in transfected cells; host or cells: HEK293
T1 sequence (P28335 33-458): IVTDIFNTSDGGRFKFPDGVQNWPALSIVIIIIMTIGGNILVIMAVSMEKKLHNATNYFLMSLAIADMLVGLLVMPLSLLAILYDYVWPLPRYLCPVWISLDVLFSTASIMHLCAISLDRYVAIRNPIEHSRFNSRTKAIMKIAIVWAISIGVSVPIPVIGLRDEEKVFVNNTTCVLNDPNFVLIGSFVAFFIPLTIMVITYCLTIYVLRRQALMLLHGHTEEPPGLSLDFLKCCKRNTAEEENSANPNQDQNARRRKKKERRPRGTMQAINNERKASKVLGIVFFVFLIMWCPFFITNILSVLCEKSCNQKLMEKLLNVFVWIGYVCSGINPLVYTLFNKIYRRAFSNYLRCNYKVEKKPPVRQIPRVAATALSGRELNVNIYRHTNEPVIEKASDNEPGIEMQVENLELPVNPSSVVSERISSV
Method: (§1) HEK293 cells expressing recombinant 5-HT2 receptors were added to sterile poly-D-lysine-coated 96-well microtiter plates (35,000 cells/well) and labeled with 0.6 μCi/well of [^3H]inositol in myoinositol-free DMEM for 18 h. Unincorporated [^3H]inositol was removed by aspiration and replaced with fresh myoinositol-free DMEM supplemented with LiCl (10 mM final) and pargyline (10 μM final). Serially diluted test compounds were then added and incubation was conducted for 2 h at 37° C. Incubations were then terminated by lysing cells with the addition of ice-cold 0.1 M formic acid followed by freezing at −80° C. After thawing, total [^3H]inositol phosphates were resolved from [^3H]inositol using AG1-X8 ion exchange resin (Bio-Rad) and [^3H]inositol phosphates were measured by scintillation counting using a Perkin Elmer TopCount® scintillation counter. All EC50 determinations were performed using 10 different concentrations and triplicate determinations were made at each test concentration.

5-HT2C receptor [2] = molecular target: T1, 5-HT2C receptor; experiment: Radioligand binding assay, [125I]DOI competition; settings: HEK293 cell membranes, read-out: DOI Binding Ki 2C
Method: (§2) HEK293 cells stably expressing recombinant 5-HT2 receptors were harvested, suspended in ice-cold phosphate buffered saline, pH 7.4 (PBS), and then centrifuged at 48,000 g for 20 min at 4° C. The resulting cell pellet was then re-suspended in wash buffer containing 20 mM HEPES, pH 7.4 and 0.1 mM EDTA, homogenized on ice using a Brinkman Polytron, and centrifuged (48,000 g for 20 min at 4° C.). The pellet was then resuspended in 20 mM HEPES, pH 7.4, homogenized on ice, and centrifuged (48,000 g for 20 min at 4° C.). Crude membrane pellets were stored at −80° C. until used for radioligand binding assays.
Radioligand binding assays were performed using the commercially available 5-HT2 receptor agonist [^125I]DOI as the radioligand and nonspecific binding was determined in the presence of unlabeled DOI at a saturating concentration of 10 μM. Competition experiments utilized 5-HT2 receptor expressing HEK293 cell membranes obtained as described in Example 3 (15-25 μg membrane protein/well) and radioligand at final assay concentrations of 0.4 to 0.6 nM. […] Finally, 25 μL of BetaScint™ scintillation cocktail was added to each well and the plates were counted in a Packard TopCount® scintillation counter. […]

5-HT2B receptor = molecular target: T2, 5-HT2B receptor (Homo sapiens, UniProt P41595); experiment: Radioligand binding assay, [125I]DOI competition; settings: HEK293 cell membranes, read-out: DOI Binding Ki 2B
T2 construct: expressed in transfected cells; host or cells: HEK293
T2 sequence (P41595 whole entry): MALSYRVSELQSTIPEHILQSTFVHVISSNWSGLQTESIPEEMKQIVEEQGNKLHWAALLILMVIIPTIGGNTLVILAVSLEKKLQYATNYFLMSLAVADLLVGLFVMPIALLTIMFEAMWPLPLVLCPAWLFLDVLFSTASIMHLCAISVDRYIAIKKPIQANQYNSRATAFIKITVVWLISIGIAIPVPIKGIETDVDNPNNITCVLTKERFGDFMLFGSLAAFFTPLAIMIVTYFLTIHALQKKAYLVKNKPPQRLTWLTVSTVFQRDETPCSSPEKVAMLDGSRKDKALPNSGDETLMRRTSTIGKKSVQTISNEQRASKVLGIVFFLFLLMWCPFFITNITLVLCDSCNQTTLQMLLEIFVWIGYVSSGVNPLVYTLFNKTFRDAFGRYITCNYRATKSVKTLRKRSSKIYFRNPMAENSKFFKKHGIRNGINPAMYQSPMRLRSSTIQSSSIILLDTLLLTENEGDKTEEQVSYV
Method: as §2
(§3) Experiments comprised addition of 95 μL, of assay buffer (20 mM HEPES, pH 7.4, 10 mM MgCl2), 50 μL, of membranes, 50 μL, of radioligand stock, and 5 μL of test compound diluted in assay buffer to 96-well microtiter plates, which were then incubated for 1 h at room temperature. Assay incubations were terminated by rapid filtration through PerkinElmer F/C filtration plates under reduced pressure using a 96-well Packard filtration apparatus, followed by washing three times with ice cold assay buffer. Plates were then dried at 45° C. for a minimum of 2 h. Finally, 25 μL of BetaScint™ scintillation cocktail was added to each well and the plates were counted in a Packard TopCount® scintillation counter. […]

5-HT2A receptor [3] = molecular target: T3, 5-HT2A receptor (Homo sapiens, UniProt P28223); experiment: Radioligand binding assay, [125I]DOI competition; settings: HEK293 cell membranes, read-out: DOI Binding Ki 2A
T3 construct: expressed in transfected cells; host or cells: HEK293
T3 sequence (P28223 whole entry): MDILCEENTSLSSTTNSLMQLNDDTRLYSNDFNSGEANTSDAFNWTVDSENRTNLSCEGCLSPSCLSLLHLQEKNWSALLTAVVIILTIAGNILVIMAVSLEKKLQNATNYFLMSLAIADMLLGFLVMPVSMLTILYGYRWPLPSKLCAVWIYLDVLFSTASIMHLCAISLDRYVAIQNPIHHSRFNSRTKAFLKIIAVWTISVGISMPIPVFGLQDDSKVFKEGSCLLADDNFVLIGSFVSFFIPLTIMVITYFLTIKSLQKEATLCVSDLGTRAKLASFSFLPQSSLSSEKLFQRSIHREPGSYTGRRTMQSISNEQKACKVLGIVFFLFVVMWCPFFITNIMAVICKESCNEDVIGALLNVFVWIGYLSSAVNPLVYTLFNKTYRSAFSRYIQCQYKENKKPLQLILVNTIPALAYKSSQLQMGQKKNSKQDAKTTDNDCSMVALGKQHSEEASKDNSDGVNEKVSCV
Method: as §2, §3

5-HT2A receptor [4] = molecular target: T3, 5-HT2A receptor; experiment: IP accumulation assay in HEK293 cells expressing recombinant 5-HT2 receptors; format: cell-based; settings: 2 h at 37° C.
Method: as §1

[5] = reports that led to withdrawal in 1998; cited from earlier work
[6] = a patient with Lennox-Gastaut syndrome; cited from earlier work
[7] = cited from earlier work
[8] = cited from earlier work; remark: listed apart in the source
[9] = one study, patients without diabetes; cited from earlier work
[10] = pivotal phase 3 program, up to two years
[11] = top quartile of patients, second phase 3 trial

CCC1CN2CCNCc3ccc(C(=O)NCC(F)F)c1c32 (single isomer, unassigned) [1st eluting enantiomer in example 1.5, N-(2,2-difluoroethyl)-7-ethyl-1,2,3,4,6,7-hexahydro-[1,4]diazepino[6,7,1-hi]indole-8-carboxamide]
EC50 (5-HT2C receptor [1]): 15200 nM

CCC1CN2CCNCc3ccc(C(=O)NCC(F)F)c1c32 (single isomer, unassigned) [2nd eluting enantiomer in example 1.5, N-(2,2-difluoroethyl)-7-ethyl-1,2,3,4,6,7-hexahydro-[1,4]diazepino[6,7,1-hi]indole-8-carboxamide]
Ki (5-HT2C receptor [2]): 19.7 nM | EC50 (5-HT2C receptor [1]): 7.09 nM | Ki (5-HT2B receptor): 92300 nM | Ki (5-HT2A receptor [3]): 6580 nM

CC1(C)CN2CCNCc3ccc(C(=O)NCC(F)F)c1c32 [Compound 6, N-(2,2-difluoroethyl)-7,7-dimethyl-1,2,3,4,6,7-hexahydro-[1,4]diazepino[6,7,1-hi]indole-8-carboxamide]
EC50 (5-HT2C receptor [1]): 195 nM

O=C(NCC(F)F)c1ccc2c3c1C1(CCC1)CN3CCNC2 [Compound 7, N-(2,2-difluoroethyl)-2,3,4,6-tetrahydro-1H-spiro[[1,4]diazepino[6,7,1-hi]indole-7,1′-cyclobutane]-8-carboxamide]
Ki (5-HT2C receptor [2]): 36.6 nM | EC50 (5-HT2C receptor [1]): 17.7 nM | Ki (5-HT2B receptor): 6810 nM | Ki (5-HT2A receptor [3]): 6750 nM | EC50 (5-HT2A receptor [4]): 160 nM

CCN[C@@H](C)Cc1cccc(C(F)(F)F)c1 [d-fenfluramine]
patients with reported cardiac valve defects [5]: up to one third

CCNC(C)Cc1cccc(C(F)(F)F)c1 (stereo not drawn) [fenfluramine]
reduction in seizure frequency during treatment [6]: two-thirds

C[C@H]1CNCCc2ccc(Cl)cc21 [lorcaserin, (R)-8-chloro-1-methyl-2,3,4,5-tetrahydro-1H-3-benzazepine]
excess body weight lost ([7]; first phase 3 trial, based on a normal BMI of 25): about one-third | patients who achieved at least 5% weight loss [7, 10]: About two-thirds | patients who achieved at least 10% weight loss [7, 10]: over one-third | average weight loss [7, 11]: 35 pounds | average weight loss, of body weight [7, 11]: 16% | reduction in HbA1c ([8]; 10 mg BID, type 2 diabetes): 0.9% | decrease of mean daily doses of sulfonylureas and thiazolidinediones ([8]; patients with type 2 diabetes): 16-24% | insulin resistance (HOMA-IR) change [9]: −0.4
